According to ChEMBL document CHEMBL3885881, “DrugMatrix”:

Species: Rattus norvegicus
Assay: DrugMatrix - Regimen: Daily Repeat
Assay type: toxicity, organism-based, Sprague-Dawley
Design: regimen Daily Repeat, gender Male, age 6-8 weeks
Conditions: in vivo, route none, vehicle 100 % UNTREATED
[1] = 0 mg/kg, 120 h, tissue Blood, dose level Control, time 5 day
[2] = 0 mg/kg, 120 h, tissue Plasma, dose level Control, time 5 day
[3] = 0 mg/kg, […], tissue Blood, dose level Control, time 14 day
[4] = 0 mg/kg, […], tissue Plasma, dose level Control, time 14 day
[5] = 50 mg/kg, 120 h, tissue Blood, dose level Low, time 5 day
[6] = 50 mg/kg, 120 h, tissue Plasma, dose level Low, time 5 day
[7] = 50 mg/kg, […], tissue Blood, dose level Low, time 14 day
[8] = 50 mg/kg, […], tissue Plasma, dose level Low, time 14 day
[9] = 60 mg/kg, 120 h, tissue Blood, dose level M1, time 5 day

## Diet_Restriction
[1]
  ABSOLUTE BASOPHIL: 0 CELLS/uL
  ABSOLUTE EOSINOPHIL: 42.67 CELLS/uL
  ABSOLUTE LYMPHOCYTE: 11593.33 CELLS/uL
  ABSOLUTE MONOCYTE: 174.33 CELLS/uL
  ABSOLUTE SEGMENTED NEUTROPHIL: 1356.33 CELLS/uL
  BASOPHIL: 0%
  EOSINOPHIL: 0.33%
  ERYTHROCYTE COUNT: 5.67 x10E6/uL
  HEMATOCRIT: 43.37%
  HEMOGLOBIN: 12.33 G/DL
  LEUKOCYTE COUNT: 13.17 x10E3/uL
  LYMPHOCYTE: 88%
  MEAN CORPUSCULAR HEMOGLOBIN: 21.77 pg
  MEAN CORPUSCULAR HEMOGLOBIN CONCENTRATION: 36.93 G/DL
  MEAN CORPUSCULAR VOLUME: 58.9 fL
  NUCLEATED RED BLOOD CELLS: 0 /100WBC
  PLATELET COUNT: 942.33 x10E3/uL
[2]
  ALANINE AMINOTRANSFERASE: 42.67 u/L
  ALBUMIN: 4.2 G/DL
  ALKALINE PHOSPHATASE: 336.33 u/L
  ASPARTATE AMINOTRANSFERASE: 74 u/L
  BLOOD UREA NITROGEN: 12.67 mg/dL
  CARBON DIOXIDE: 32.33 mmol/L
  CHOLESTEROL: 78.67 mg/dL
  CREATINE PHOSPHOKINASE: 847.33 u/L
  CREATININE: 0.22 mg/dL
  LACTATE DEHYDROGENASE: 139.67 u/L
  POTASSIUM: 6.74 MEQ/L
  TOTAL BILIRUBIN: 0.13 mg/dL
  URIC ACID: 1.3 mg/dL
[3]
  ABSOLUTE BASOPHIL: 0 CELLS/uL
  ABSOLUTE EOSINOPHIL: 46.33 CELLS/uL
  ABSOLUTE LYMPHOCYTE: 13977 CELLS/uL
  ABSOLUTE MONOCYTE: 264.67 CELLS/uL
  ABSOLUTE SEGMENTED NEUTROPHIL: 1445.33 CELLS/uL
  BASOPHIL: 0%
  EOSINOPHIL: 0.33%
  ERYTHROCYTE COUNT: 6.27 x10E6/uL
  LEUKOCYTE COUNT: 15.73 x10E3/uL
  LYMPHOCYTE: 89%
  MEAN CORPUSCULAR HEMOGLOBIN: 22.27 pg
  MEAN CORPUSCULAR HEMOGLOBIN CONCENTRATION: 37.13 G/DL
  NEUTROPHIL: 9%
  NUCLEATED RED BLOOD CELLS: 0 /100WBC
  PLATELET COUNT: 923 x10E3/uL
[4]
  ALANINE AMINOTRANSFERASE: 48.67 u/L
  ALKALINE PHOSPHATASE: 360 u/L
  ASPARTATE AMINOTRANSFERASE: 67 u/L
  CARBON DIOXIDE: 32 mmol/L
  CHLORIDE: 99 MEQ/L
  CHOLESTEROL: 92.67 mg/dL
  CREATINE PHOSPHOKINASE: 220.67 u/L
  CREATININE: 0.19 mg/dL
  LACTATE DEHYDROGENASE: 88.33 u/L
  LIPASE: 10 u/L
  PHOSPHORUS: 13.07 mg/dL
  POTASSIUM: 6.69 MEQ/L
  TOTAL BILIRUBIN: 0.17 mg/dL
  TOTAL PROTEIN: 6.33 G/DL
  URIC ACID: 1.9 mg/dL
[5]
  ABSOLUTE BASOPHIL: 0 CELLS/uL
  ABSOLUTE EOSINOPHIL: 0 CELLS/uL
  ABSOLUTE LYMPHOCYTE: 5557.67 CELLS/uL
  ABSOLUTE MONOCYTE: 33.33 CELLS/uL
  ABSOLUTE SEGMENTED NEUTROPHIL: 409 CELLS/uL
  BASOPHIL: 0%
  EOSINOPHIL: 0%
  ERYTHROCYTE COUNT: 6.2 x10E6/uL
  HEMOGLOBIN: 13.47 G/DL
  LEUKOCYTE COUNT: 6 x10E3/uL
  LYMPHOCYTE: 93%
  MEAN CORPUSCULAR HEMOGLOBIN: 21.73 pg
  MEAN CORPUSCULAR HEMOGLOBIN CONCENTRATION: 37.13 G/DL
  MEAN CORPUSCULAR VOLUME: 58.43 fL
  MONOCYTE: 0.67%
  NEUTROPHIL: 6.33%
  NUCLEATED RED BLOOD CELLS: 0 /100WBC
  PLATELET COUNT: 1004.67 x10E3/uL
[6]
  ALBUMIN: 4.4 G/DL
  ALKALINE PHOSPHATASE: 272.67 u/L
  ASPARTATE AMINOTRANSFERASE: 69 u/L
  BLOOD UREA NITROGEN: 10 mg/dL
  CHOLESTEROL: 67.33 mg/dL
  CREATININE: 0.15 mg/dL
  GLUCOSE: 121.33 mg/dL
  LACTATE DEHYDROGENASE: 95.33 u/L
  LIPASE: 10 u/L
  PHOSPHORUS: 10.03 mg/dL
  POTASSIUM: 6.08 MEQ/L
  SODIUM: 146.6 MEQ/L
  TOTAL BILIRUBIN: 0.13 mg/dL
  TOTAL PROTEIN: 6.27 G/DL
  URIC ACID: 1.13 mg/dL
[7]
  ABSOLUTE BASOPHIL: 0 CELLS/uL
  ABSOLUTE EOSINOPHIL: 34 CELLS/uL
  ABSOLUTE LYMPHOCYTE: 10004 CELLS/uL
  ABSOLUTE MONOCYTE: 145.67 CELLS/uL
  ABSOLUTE SEGMENTED NEUTROPHIL: 1049.67 CELLS/uL
  BASOPHIL: 0%
  EOSINOPHIL: 0.33%
  ERYTHROCYTE COUNT: 7.11 x10E6/uL
  HEMATOCRIT: 38.27%
  LEUKOCYTE COUNT: 11.23 x10E3/uL
  LYMPHOCYTE: 89.33%
  MEAN CORPUSCULAR HEMOGLOBIN: 19.8 pg
  MEAN CORPUSCULAR HEMOGLOBIN CONCENTRATION: 36.77 G/DL
  MEAN CORPUSCULAR VOLUME: 53.83 fL
  NEUTROPHIL: 9%
  NUCLEATED RED BLOOD CELLS: 0 /100WBC
  PLATELET COUNT: 891.33 x10E3/uL
[8]
  ALANINE AMINOTRANSFERASE: 40.33 u/L
  ALBUMIN: 4.2 G/DL
  ALKALINE PHOSPHATASE: 255.67 u/L
  ASPARTATE AMINOTRANSFERASE: 75 u/L
  BLOOD UREA NITROGEN: 15 mg/dL
  CHOLESTEROL: 62.33 mg/dL
  CREATINE PHOSPHOKINASE: 467.33 u/L
  CREATININE: 0.22 mg/dL
  GLUCOSE: 163.67 mg/dL
  LACTATE DEHYDROGENASE: 62.33 u/L
  POTASSIUM: 5.28 MEQ/L
  TOTAL BILIRUBIN: 0.1 mg/dL
  TOTAL PROTEIN: 6.1 G/DL
  URIC ACID: 1.5 mg/dL
[9]
  ABSOLUTE BASOPHIL: 0 CELLS/uL
  ABSOLUTE EOSINOPHIL: 49.33 CELLS/uL
  ABSOLUTE LYMPHOCYTE: 3766.67 CELLS/uL
  ABSOLUTE MONOCYTE: 29.33 CELLS/uL
  ABSOLUTE SEGMENTED NEUTROPHIL: 454.67 CELLS/uL
